From US6461997B1, “Triazole sulfones having herbicidal activity” (Monsanto Technology LLC, priority 1999, dated 2002)

Experiments:
[1] = system: GALAP (catchweed bedstraw); assay: Pre-emergence herbicidal activity, cool season; format: in vivo, Galium aparine; conditions: lowest tested rate with 80% or greater inhibition; rates 300, 100, 30, 10 g/ha; about 14 days
Procedure, shortened: (§1)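 GR80 values derive from percent inhibition relative to untreated plants, read roughly 14 days after sowing and pre-emergence soil-surface treatment (compound in 50:50 acetone/water; rates typically 10, 30, 100, 300 g/ha). Warm-season weeds grew at 30/21° C day/night, cool-season ones at 18/13° C; an asterisk marks activity without reaching 80% at the highest rate.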

POLCO (wild buckwheat) = assay: Pre-emergence herbicidal activity, cool season; format: in vivo, Polygonum convolvulus; conditions: lowest tested rate with 80% or greater inhibition; rates 300, 100, 30, 10 g/ha; about 14 days
Procedure, shortened: (§2)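 Activity is expressed as the rate giving 80% inhibition, with 300, 100, 30 and 10 g/ha typically tested. An asterisk marks activity short of 80% at the top rate. Warm-season grasses were held at 30/21 °C; cool-season blackgrass and wild buckwheat at 18/13 °C; scoring at about 14 days.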

SINAR (wild mustard) = assay: Pre-emergence herbicidal activity, cool season; format: in vivo, Sinapis arvensis; conditions: lowest tested rate with 80% or greater inhibition; rates 300, 100, 30, 10 g/ha; about 14 days
Procedure, shortened: as §1

[2] = system: VERPE (creeping speedwell); assay: Pre-emergence herbicidal activity, cool season; format: in vivo, Veronica persicaria; conditions: lowest tested rate with 80% or greater inhibition; rates 300, 100, 30, 10 g/ha; about 14 days
Procedure, shortened: as §1

SASKR (russian thistle) = assay: Pre-emergence herbicidal activity, cool season; format: in vivo, Salsola kali; conditions: lowest tested rate with 80% or greater inhibition; rates 300, 100, 30, 10 g/ha; about 14 days
Procedure, shortened: as §1

STEME (common chickweed) = assay: Pre-emergence herbicidal activity, cool season; format: in vivo, Stellaria media; conditions: lowest tested rate with 80% or greater inhibition; rates 300, 100, 30, 10 g/ha; about 14 days
Procedure, shortened: as §1

[3] = system: LAMPU (purple deadnettle); assay: Pre-emergence herbicidal activity, cool season; format: in vivo, Lamium purpureum; conditions: lowest tested rate with 80% or greater inhibition; rates 300, 100, 30, 10 g/ha; about 14 days
Procedure, shortened: as §1

BROTE (downy brome) = assay: Pre-emergence herbicidal activity, cool season; format: in vivo, Bromus tectorum; conditions: GR80 = lowest tested rate (300, 100, 30, 10 g/ha) with 80% or greater inhibition; approx. 14 days after treating; 18/13° C.
Experimental: (§3) Tables 5 to 8 summarize results of tests conducted as described below to determine the pre-emergence herbicidal activity, in the form of a GR80 value, of illustrative compounds of this invention. […] Compounds of the invention were typically applied at rates of 300, 100, 30, and 10 g/ha. Where herbicidal activity was evident but 80% inhibition was not achieved at the highest rate tested, an asterisk (*) is shown in the following tables.
(§4) The pre-emergence tests were conducted by the following procedure. Topsoil was sieved to pass through a 1.27 cm screen. Fertilizer was added to the topsoil and the mixture was then sterilized by heating. The topsoil mixture was placed in a pot and compacted to a depth of 1.0 to 1.25 cm from the top of the pot. Seeds of each of several monocotyledonous and dicotyledonous annual plant species were placed on top of the soil. Additional soil was subsequently placed over the seeds to level-fill the pot. A known amount of each test compound dissolved or suspended in an appropriate organic solvent was diluted with a 50:50 mix of acetone and water and applied to the surface of the soil. After treatment the plants were placed in a greenhouse where they received 0.64 cm of overhead irrigation. All subsequent watering consisted of a light overhead mist and/or subirrigation as needed for germination and growth. Tables 5 and 6 below relate to warm season plant species which were placed after pre-emergence treatment in a greenhouse with a 30/21° C. day/night temperature regime. Tables 7 and 8 below relates to cool season plant species placed after pre-emergence treatment in a greenhouse or growth chamber with an 18/13° C. day/night temperature regime.
(§5) Approximately 14 days after planting and treating, the plants were observed and herbicidal efficacy recorded as percent inhibition by comparison with untreated plants.
(§6) The plant species usually regarded as weeds which were utilized in the tests are identified in the tables below according to the following legend, in which “d” indicates a dicotyledonous species and “m” a monocotyledonous species. All monocotyledonous species included in the tests herein are grasses.

[4] = system: AGSST (creeping bentgrass); assay: Pre-emergence herbicidal activity, cool season; format: in vivo, Agrostis stolonifera; conditions: GR80 = lowest tested rate (300, 100, 30, 10 g/ha) with 80% or greater inhibition; approx. 14 days after treating; 18/13° C.
Procedure, shortened: as §1

POROL (common purslane) = assay: Pre-emergence herbicidal activity, warm season; format: in vivo, Portulaca oleracea; conditions: GR80 = lowest tested rate (300, 100, 30, 10 g/ha) with 80% or greater inhibition; approx. 14 days after treating; 30/21° C.
Procedure, shortened: as §1

[5] = system: CIRAR (canada thistle (seedling)); assay: Pre-emergence herbicidal activity, warm season; format: in vivo, Cirsium arvense; conditions: GR80 = lowest tested rate (300, 100, 30, 10 g/ha) with 80% or greater inhibition; approx. 14 days after treating; 30/21° C.
Experimental: as §3, §4, §5, §6

[6] = system: PANMI (wild proso millet); assay: Pre-emergence herbicidal activity, warm season; format: in vivo, Panicum miliaceum; conditions: GR80 = lowest tested rate (300, 100, 30, 10 g/ha) with 80% or greater inhibition; approx. 14 days after treating; 30/21° C.
Procedure, shortened: as §2

SETFA (giant foxtail) = assay: Pre-emergence herbicidal activity, warm season; format: in vivo, Setaria faberi; conditions: GR80 = lowest tested rate (300, 100, 30, 10 g/ha) with 80% or greater inhibition; approx. 14 days after treating; 30/21° C.
Procedure, shortened: as §2

PANDI (fall panicum) = assay: Pre-emergence herbicidal activity, warm season; format: in vivo, Panicum dichotomiflorum; conditions: GR80 = lowest tested rate (300, 100, 30, 10 g/ha) with 80% or greater inhibition; approx. 14 days after treating; 30/21° C.
Experimental: as §3, §4, §5, §6

[7] = system: BRAPP (broadleaf signalgrass); assay: Pre-emergence herbicidal activity, warm season; format: in vivo, Brachiaria platyphylla; conditions: GR80 = lowest tested rate (300, 100, 30, 10 g/ha) with 80% or greater inhibition; approx. 14 days after treating; 30/21° C.
Procedure, shortened: as §2

ALOMY (blackgrass) = assay: Pre-emergence herbicidal activity, cool season; format: in vivo, Alopecurus myosuroides; conditions: GR80 = lowest tested rate (300, 100, 30, 10 g/ha) with 80% or greater inhibition; approx. 14 days after treating; 18/13° C.
Procedure, shortened: as §2

SETVI (green foxtail) = assay: Pre-emergence herbicidal activity, cool season; format: in vivo, Setaria viridis; conditions: GR80 = lowest tested rate (300, 100, 30, 10 g/ha) with 80% or greater inhibition; approx. 14 days after treating; 18/13° C.
Procedure, shortened: as §1

LOLMG (annual ryegrass) = assay: Pre-emergence herbicidal activity, cool season; format: in vivo, Lolium multiflorum; conditions: GR80 = lowest tested rate (300, 100, 30, 10 g/ha) with 80% or greater inhibition; approx. 14 days after treating; 18/13° C.
Experimental: as §3, §4, §5, §6

SMILES	Pre-emergence activity GR80, GALAP [1]	Pre-emergence activity GR80, POLCO (POLCO (wild buckwheat))	Pre-emergence activity GR80, SINAR (SINAR (wild mustard))	Pre-emergence activity GR80, VERPE [2]	Pre-emergence activity GR80, SASKR (SASKR (russian thistle))	Pre-emergence activity GR80, STEME (STEME (common chickweed))	Pre-emergence activity GR80, LAMPU [3]	Pre-emergence activity (GR80) BROTE (BROTE (downy brome))	Pre-emergence activity (GR80) AGSST [4]	Pre-emergence activity (GR80) POROL (POROL (common purslane))	Pre-emergence activity (GR80) CIRAR [5]	Pre-emergence activity (GR80) PANMI [6]	Pre-emergence activity (GR80) SETFA (SETFA (giant foxtail))	Pre-emergence activity (GR80) PANDI (PANDI (fall panicum))	Pre-emergence activity (GR80) BRAPP [7]	Pre-emergence activity (GR80) ALOMY (ALOMY (blackgrass))	Pre-emergence activity (GR80) SETVI (SETVI (green foxtail))	Pre-emergence activity (GR80) LOLMG (LOLMG (annual ryegrass))
CON(C)C(=O)n1cnc(S(=O)(=O)C(F)(F)C(F)(F)Br)n1 [Example 81]	[empty]	[empty]	30 g/ha	100 g/ha	100 g/ha	30 g/ha	100 g/ha	30 g/ha	100 g/ha									
CN(C(=O)n1cnc(S(=O)(=O)C(F)(F)Br)n1)C1CCCCC1 [Example 43]	300 g/ha	[empty]	[empty]	300 g/ha	[empty]	300 g/ha	300 g/ha		100 g/ha	300 g/ha	300 g/ha	100 g/ha	100 g/ha	100 g/ha	300 g/ha	300 g/ha	300 g/ha	
CON(C)C(=O)n1cnc(S(=O)(=O)C(F)(F)C(F)F)n1 [Example 69]	100 g/ha	100 g/ha	30 g/ha	100 g/ha	[empty]	300 g/ha	[empty]	300 g/ha								300 g/ha	100 g/ha	300 g/ha
CON(C)C(=O)n1cnc(S(=O)(=O)C(F)F)n1 [Example 34]	[empty]	300 g/ha	300 g/ha	300 g/ha	300 g/ha	[empty]	300 g/ha	300 g/ha									300 g/ha	
CN(C)C(=O)n1cnc(S(=O)(=O)C(F)(F)Cl)n1 [Example 85]	[empty]	[empty]	30 g/ha	100 g/ha	100 g/ha	30 g/ha	100 g/ha	100 g/ha	100 g/ha								300 g/ha	100 g/ha
